Experimental data published in patent publication US20240317760A1, “TRK KINASE INHIBITOR COMPOUND AND USE THEREOF” (HENAN MEDINNO PHARMACEUTICAL TECHNOLOGY CO., LTD., priority 2021, published 2024).

Assays:
Type in all cases: biochemical
[1] = biological target: T1, TRKA (Homo sapiens, UniProt P04629); experiment: Determination of inhibitory activity against TRKA kinase (ADP-Glo Kinase Assay); settings: ATP 5 μM, Poly (4:1 Glu, Tyr) Peptide 0.03 mg/ml
T1 construct: purchased Carna 08-186
Procedure: (§1) Assay: Determination of Inhibitory Activity Against TRKA/B/C Kinases
(§2) 1× volume of 5× kinase reaction buffer and 4× volume of water; 5 mM MgCl2; and 1 mM DTT.
(§3) • 1). Gradiently diluting a compound 4-fold in a dilution plate with DMSO, with a starting compound concentration of 1000 nM. • 2). Diluting the compound 50-fold into 1× kinase reaction buffer and shaking it on a shaker for 20 minutes. • 3). Formulating 2× kinase with 1× of enzyme reaction buffer. • 4). Adding 2 μl kinase (formulated in step 3) to each well of the reaction plate. • 5). Adding 1 μl of the compound diluted in buffer to each well, sealing the plate with a sealing membrane and centrifuging the plate at 1000 g for 30 seconds and leaving it at room temperature for 10 minutes. • 6). Formulating 4×ATP & sub mixture with 1× enzyme reaction buffer and adding 1 μl of 4×ATP & sub mixture to the reaction plate. • 7). Sealing the plate with a sealing membrane and centrifuging the plate at 1000 g for 30 seconds and allowing it to react at room temperature for 60 minutes. • 8). Transferring 4 μl of ADP-Glo to 384 reaction plate and centrifuging the plate at 1000 rpm/min for 1 min, and then incubating it at 25° C. for 40 min. • 9). Transferring 8 μl of Detection solution to 384 reaction plate and centrifuging the plate at 1000 rpm/min for 1 min and incubating it at 25° C. for 40 min. • 10) Reading the RLU (Relative luminescence unit) signal using a Biotek multifunctional plate reader. The signal intensity was used to characterize the activity degree of kinase.
(§4) The IC50 (half inhibition concentration) of a compound was obtained using the following non-linear fitting equation, wherein data analysis was performed using Graphpad 6.0 software.
(§5) Y=Bottom+(Top−Bottom)/(1+10^((Log IC50−X)*Hill Slope)) • X: log value of compound concentration; and Y: inhibition rate (% inhibition)
(§6) Data were exported from Biotek and analyzed manually. The ratios were converted to inhibition rates and IC50 was calculated by Prism GraphPad 6.0 from the inhibition rates. IC50 was calculated again by the ratios to verify accuracy of the results.

[2] = biological target: T2, TRKB (Homo sapiens, UniProt Q16620); experiment: Determination of inhibitory activity against TRKB kinase (ADP-Glo Kinase Assay); settings: ATP 20 μM, Poly (4:1 Glu, Tyr) Peptide 0.03 mg/ml
T2 construct: purchased SignalChem N17-11G
Procedure: as §1, §2, §3, §4, §5, §6

[3] = biological target: T3, TRKC (Homo sapiens, UniProt Q16288); experiment: Determination of inhibitory activity against TRKC kinase (ADP-Glo Kinase Assay); settings: ATP 5 μM, Poly (4:1 Glu, Tyr) Peptide 0.03 mg/ml
T3 construct: purchased Carna 08-196
Procedure: as §1, §2, §3, §4, §5, §6

T3 sequence (Q16288 32-839): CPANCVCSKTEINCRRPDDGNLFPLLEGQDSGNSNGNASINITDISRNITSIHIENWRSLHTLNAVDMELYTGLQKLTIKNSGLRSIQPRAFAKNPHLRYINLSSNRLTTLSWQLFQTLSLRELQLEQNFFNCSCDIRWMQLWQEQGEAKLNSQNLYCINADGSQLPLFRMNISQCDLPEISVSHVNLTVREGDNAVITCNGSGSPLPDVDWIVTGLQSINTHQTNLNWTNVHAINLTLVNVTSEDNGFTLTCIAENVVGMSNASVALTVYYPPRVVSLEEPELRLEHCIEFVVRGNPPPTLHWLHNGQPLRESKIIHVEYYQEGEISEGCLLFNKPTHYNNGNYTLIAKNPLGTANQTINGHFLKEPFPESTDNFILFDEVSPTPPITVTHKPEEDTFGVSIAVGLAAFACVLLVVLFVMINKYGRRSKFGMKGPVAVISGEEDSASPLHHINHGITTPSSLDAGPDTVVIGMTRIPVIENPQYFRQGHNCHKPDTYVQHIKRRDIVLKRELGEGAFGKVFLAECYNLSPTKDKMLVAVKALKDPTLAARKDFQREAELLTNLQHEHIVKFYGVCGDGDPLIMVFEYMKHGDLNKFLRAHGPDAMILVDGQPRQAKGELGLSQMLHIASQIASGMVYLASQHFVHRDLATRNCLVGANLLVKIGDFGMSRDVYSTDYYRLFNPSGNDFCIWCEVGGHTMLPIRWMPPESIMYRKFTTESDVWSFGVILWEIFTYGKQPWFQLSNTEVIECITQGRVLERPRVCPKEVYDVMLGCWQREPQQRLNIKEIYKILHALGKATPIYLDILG
T2 sequence (Q16620 32-822): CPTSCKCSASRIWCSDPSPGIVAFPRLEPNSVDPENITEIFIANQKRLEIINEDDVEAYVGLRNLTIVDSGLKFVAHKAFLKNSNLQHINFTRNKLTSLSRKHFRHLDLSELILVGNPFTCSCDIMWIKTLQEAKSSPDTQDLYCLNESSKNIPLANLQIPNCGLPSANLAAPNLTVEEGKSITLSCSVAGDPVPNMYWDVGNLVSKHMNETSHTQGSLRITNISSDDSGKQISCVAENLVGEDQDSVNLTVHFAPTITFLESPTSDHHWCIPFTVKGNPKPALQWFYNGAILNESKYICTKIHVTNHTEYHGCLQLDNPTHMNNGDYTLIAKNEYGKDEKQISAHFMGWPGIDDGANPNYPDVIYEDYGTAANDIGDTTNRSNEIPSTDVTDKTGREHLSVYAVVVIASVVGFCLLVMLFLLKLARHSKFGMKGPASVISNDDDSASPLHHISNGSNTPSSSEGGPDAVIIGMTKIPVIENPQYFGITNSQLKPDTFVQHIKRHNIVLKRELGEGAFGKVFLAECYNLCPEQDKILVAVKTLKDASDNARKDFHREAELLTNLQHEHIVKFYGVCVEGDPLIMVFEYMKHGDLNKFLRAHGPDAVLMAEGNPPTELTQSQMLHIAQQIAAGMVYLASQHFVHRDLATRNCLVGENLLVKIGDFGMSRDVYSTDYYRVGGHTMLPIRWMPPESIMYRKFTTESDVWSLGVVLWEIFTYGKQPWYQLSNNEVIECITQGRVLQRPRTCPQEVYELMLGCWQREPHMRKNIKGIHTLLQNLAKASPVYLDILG
T1 sequence (P04629 33-796): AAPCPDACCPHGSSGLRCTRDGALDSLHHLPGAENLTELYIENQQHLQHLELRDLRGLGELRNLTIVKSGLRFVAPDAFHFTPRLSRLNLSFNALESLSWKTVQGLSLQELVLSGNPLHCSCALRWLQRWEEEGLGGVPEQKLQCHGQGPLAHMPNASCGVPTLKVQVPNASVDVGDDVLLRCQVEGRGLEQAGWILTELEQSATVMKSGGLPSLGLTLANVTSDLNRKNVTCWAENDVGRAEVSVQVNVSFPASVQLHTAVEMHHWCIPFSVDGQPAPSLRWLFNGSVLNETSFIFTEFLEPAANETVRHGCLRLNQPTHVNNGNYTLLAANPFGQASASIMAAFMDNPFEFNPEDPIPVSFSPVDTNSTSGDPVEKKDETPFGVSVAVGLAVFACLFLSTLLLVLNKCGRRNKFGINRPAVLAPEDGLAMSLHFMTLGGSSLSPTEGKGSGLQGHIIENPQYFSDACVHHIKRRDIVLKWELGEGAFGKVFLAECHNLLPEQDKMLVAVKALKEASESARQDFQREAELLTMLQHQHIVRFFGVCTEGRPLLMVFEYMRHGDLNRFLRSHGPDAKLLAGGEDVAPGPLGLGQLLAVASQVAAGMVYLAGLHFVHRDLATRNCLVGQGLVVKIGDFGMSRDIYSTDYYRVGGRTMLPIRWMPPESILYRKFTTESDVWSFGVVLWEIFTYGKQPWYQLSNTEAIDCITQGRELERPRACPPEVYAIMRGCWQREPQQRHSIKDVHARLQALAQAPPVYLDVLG

Row | IC50 [1] | IC50 [2] | IC50 [3] | Structure (SMILES)
1 | 1.2 nM | 4.8 nM | 4.1 nM | CC(=O)N1CCC(CN2Cc3nc(-c4n[nH]c5ccc(OC(C)c6cc(F)cc(F)c6)cc45)[nH]c3C2)CC1 (stereo not drawn) [Example 19, 1-(4-((2-(5-(1-(3,5-Difluorophenyl)ethoxy)-1H-indazol-3-yl)-4,6-dihydropyrrolo[3,4-d]imidazol-5(1H)-yl)methyl)piperidin-1-yl)ethan-1-one]
2 | 1.5 nM | 4 nM | 2.9 nM | CC(Oc1ccc2[nH]nc(-c3nc4c([nH]3)CN(CC3CCN(C)C3)C4)c2c1)c1cc(F)cc(F)c1 (stereo not drawn) [Example 20]
3 | 1.8 nM | 6.8 nM | 2.5 nM | CC(Oc1ccc2[nH]nc(-c3nc4c([nH]3)CN(CCC3CCN(C)CC3)C4)c2c1)c1cc(F)cc(F)c1 (stereo not drawn) [Example 21, 5-(1-(3,5-Difluorophenyl)ethoxy)-3-(5-(2-(1-methylpiperidin-4-yl)ethyl)-1,4,5,6-tetrahydropyrrolo[3,4-d]imidazol-2-yl)-1H-indazole]
4 | 0.47 nM | 0.82 nM | 0.51 nM | CC(Oc1ccc2[nH]nc(-c3nc4c([nH]3)CN(CC3CCN(C(C)C)CC3)C4)c2c1)c1cc(F)cc(F)c1 (stereo not drawn) [Example 22]
5 | 0.59 nM | 1.5 nM | 1.1 nM | CC(Oc1ccc2[nH]nc(-c3nc4c([nH]3)CN(C(C)C3CCN(C)CC3)C4)c2c1)c1cc(F)cc(F)c1 (stereo not drawn) [Example 23, 5-(1-(3,5-Difluorophenyl)ethoxy)-3-(5-(1-(1-methylpiperidin-4-yl)ethyl)-1,4,5,6-tetrahydropyrrolo[3,4-d]imidazol-2-yl)-1H-indazole]
6 | 1.5 nM | 5.3 nM | 2.2 nM | CC(Oc1ccc2[nH]nc(-c3nc4c([nH]3)CN(CC3CCCNC3)C4)c2c1)c1cc(F)cc(F)c1 (stereo not drawn) [Example 24, 5-(1-(3,5-Difluorophenyl)ethoxy)-3-(5-(piperidin-3-ylmethyl)-1,4,5,6-tetrahydropyrrolo[3,4-d]imidazol-2-yl)-1H-indazole]
7 | 1.8 nM | 6.8 nM | 1.6 nM | CC(Oc1ccc2[nH]nc(-c3nc4c([nH]3)CN(CC3CCCCN3)C4)c2c1)c1cc(F)cc(F)c1 (stereo not drawn) [Example 25, 5-(1-(3,5-Difluorophenyl)ethoxy)-3-(5-(piperidin-2-ylmethyl)-1,4,5,6-tetrahydropyrrolo[3,4-d]imidazol-2-yl)-1H-indazole]
8 | 2.8 nM | 5.5 nM | 2 nM | CC(Oc1ccc2[nH]nc(-c3nc4c([nH]3)CN(CC3CN(C)C3)C4)c2c1)c1cc(F)cc(F)c1 (stereo not drawn) [Example 26, 5-(1-(3,5-Difluorophenyl)ethoxy)-3-(5-((1-methylazetidin-3-yl)methyl)-1,4,5,6-tetrahydropyrrolo[3,4-d]imidazol-2-yl)-1H-indazole]

More lines, now with the values behind:

Row | Structure (SMILES) | IC50 [1] | IC50 [2] | IC50 [3]
9 | CC(Nc1ccc2[nH]nc(-c3nc4c([nH]3)CNC4)c2c1)c1cc(F)cc(F)c1 (stereo not drawn) [Example 1] | 1.8 nM | 2.8 nM | 5.5 nM
10 | Fc1cc(F)cc(CNc2ccc3[nH]nc(-c4nc5c([nH]4)CN(CC4CCNCC4)C5)c3c2)c1 [Example 2, N-(3,5-difluorobenzyl)-3-(5-(piperidin-4-ylmethyl)-1,4,5,6-tetrahydropyrrolo[3,4-d]imidazol-2-yl)-1H-indazol-5-amine] | 3.5 nM | 3.4 nM | 3.3 nM
11 | CS(=O)(=O)N1Cc2nc(-c3n[nH]c4ccc(Cc5cc(F)cc(F)c5)cc34)[nH]c2C1 [Example 3, 5-(3,5-difluorobenzyl)-3-(5-(methylsulfonyl)-1,4,5,6-tetrahydropyrrolo[3,4-d]imidazol-2-yl)-1H-indazole] | 6.4 nM | 5.5 nM | 11 nM
12 | CC(Oc1ccc2[nH]nc(-c3nc4c([nH]3)CN(C3CCN(C)CC3)C4)c2c1)c1cc(F)cc(F)c1 (stereo not drawn) [Example 4, 5-(1-(3,5-difluorophenyl)ethoxy)-3-(5-(1-methylpiperidin-4-yl)-1,4,5,6-tetrahydropyrrolo[3,4-d]imidazol-2-yl)-1H-indazole] | 2 nM | 2.4 nM | 3.1 nM
13 | CC(Oc1ccc2[nH]nc(-c3nc4c([nH]3)CN(C(=O)N(C)C)C4)c2c1)c1cc(F)cc(F)c1 (stereo not drawn) [Example 5, 2-(5-(1-(3,5-difluorophenyl)ethoxy)-1H-indazol-3-yl)-N,N-dimethyl-4,6-dihydropyrrolo[3,4-d]imidazole-5(1H) formamide] | 2.3 nM | 2.1 nM | 3.1 nM
14 | CC(Oc1ccc2[nH]nc(-c3nc4c([nH]3)CN(C(=O)OCCN(C)C)C4)c2c1)c1cc(F)cc(F)c1 (stereo not drawn) [Example 6, 2-(Dimethylamino)ethyl 2-(5-(1-(3,5-difluorophenyl)ethoxy)-1H-indazol-3-yl)-4,6-dihydropyrrolo[3,4-d]imidazole-5(1H)-carboxylate] | 0.97 nM | 3.2 nM | 1.4 nM
15 | CC(Oc1ccc2[nH]nc(-c3nc4c([nH]3)CN(C(=O)C3CCN(C)CC3)C4)c2c1)c1cc(F)cc(F)c1 (stereo not drawn) [Example 7, (2-(5-(1-(3,5-difluorophenyl)ethoxy)-1H-indazol-3-yl)-4,6-dihydropyrrolo[3,4-d]imidazol-5(1H)-yl)(1-methylpiperidin-4-yl)ketone] | 1.4 nM | 3.4 nM | 1.3 nM
16 | CC(Oc1ccc2[nH]nc(-c3nc4c([nH]3)CN(C3CCN(C)CC3)CC4)c2c1)c1cc(F)cc(F)c1 (stereo not drawn) [Example 8, 2-(5-(1-(3,5-difluorophenyl)ethoxy)-1H-indazol-3-yl)-5-(1-methylpiperidin-4-yl)-4,5,6,7-tetrahydro-3H-imidazo[4,5-c]pyridine] | 0.7 nM | 2.8 nM | 1.6 nM
17 | C[C@H](Oc1ccc2[nH]nc(-c3nc4c([nH]3)CN(CC3CCN(C)CC3)C4)c2c1)c1cc(F)cc(F)c1 [Example 9] | 1.7 nM | 28 nM | 4.6 nM
18 | CC(Oc1ccc2[nH]nc(-c3nc4c([nH]3)CN(C(=O)OC3CCN(C)CC3)C4)c2c1)c1cc(F)cc(F)c1 (stereo not drawn) [Example 10, 1-Methylpiperidin-4-yl-2-(5-(1-(3,5-difluorophenyl)ethoxy)-1H-indazol-3-yl)-4,6-dihydropyrrolo[3,4-d]imidazole-5(1H)-carboxylate] | 0.77 nM | 2.5 nM | 1.3 nM
19 | CC(Nc1ccc2[nH]nc(-c3nc4c([nH]3)CN(CC3CCNCC3)C4)c2c1)c1cc(F)cc(F)c1 (stereo not drawn) [Example 11, N-(1-(3,5-difluorophenyl)ethyl)-3-(5-(piperidin-4-ylmethyl)-1,4,5,6-tetrahydropyrrolo[3,4-d]imidazol-2-yl)-1H-indazol-5-amine] | 1.4 nM | 2.2 nM | 2.4 nM
20 | O=C(C1CC1)N1Cc2nc(-c3n[nH]c4ccc(Cc5cc(F)cc(F)c5)cc34)[nH]c2C1 [Example 13, Cyclopropyl(2-(5-(3,5-difluorobenzyl)-1H-indazol-3-yl)-4,6-dihydropyrrolo [3,4-d]imidazol-5(1H)-yl)ketone] | 6.9 nM | 4.4 nM | 9.2 nM
21 | CN1CCC(N2Cc3nc(-c4n[nH]c5ccc(Cc6cc(F)cc(F)c6)cc45)[nH]c3C2)CC1 [Example 14, 5-(3,5-Difluorobenzyl)-3-(5-(1-methylpiperidin-4-yl)-1,4,5,6-tetrahydropyrrolo[3,4-d]imidazol-2-yl)-1H-indazole] | 3.5 nM | 9.5 nM | 11.5 nM
22 | CC(Oc1ccc2[nH]nc(-c3nc4c([nH]3)CN(CC3CCN(C)CC3)C4)c2c1)c1cc(F)cc(F)c1 (stereo not drawn) [Example 15] | 0.75 nM | 0.65 nM | 0.86 nM
23 | CC(Oc1ccc2[nH]nc(-c3nc4c([nH]3)CN(CC3CCNCC3)C4)c2c1)c1cc(F)cc(F)c1 (stereo not drawn) [Example 16, 5-(1-(3,5-Difluorophenyl)ethoxy)-3-(5-(piperidin-4-ylmethyl)-1,4,5,6-tetrahydropyrrolo[3,4-d]imidazol-2-yl)-1H-indazole] | 1.3 nM | 1.9 nM | 1.8 nM
24 | CCN1CCC(CN2Cc3nc(-c4n[nH]c5ccc(OC(C)c6cc(F)cc(F)c6)cc45)[nH]c3C2)CC1 (stereo not drawn) [Example 17] | 0.66 nM | 4.2 nM | 1.5 nM
25 | CC(Oc1ccc2[nH]nc(-c3nc4c([nH]3)CN(CCN(C)C)C4)c2c1)c1cc(F)cc(F)c1 (stereo not drawn) [Example 18, 2-(2-(5-(1-(3,5-Difluorophenyl)ethoxy)-1H-indazol-3-yl)-4,6-dihydropyrrolo[3,4-d]imidazol-5(1H)-yl)-N,N-dimethyl ethan-1-amine] | 0.8 nM | 1.1 nM | 1.5 nM
